The values that follow come from PMC6222558, “Synthesis and Evolution of Berberine Derivatives as a New Class of Antiviral Agents against Enterovirus 71 through the MEK/ERK Pathway and Autophagy” (Molecules : A Journal of Synthetic Chemistry and Natural …, 2018).

Broadly, the melting point is the temperature, or range, at which the solid turns liquid. The IC50 is the concentration that gives 50% inhibition.

Series [1] relates to Vero cells. The experiment in a line: Cytotoxicity assay (CCK) in Vero cells. It is filed as cell-based, African green monkey. The note with it: Vero cells; calculated on the organic part; n = 3. The procedure:
(§1) Vero cells were purchased from the American Type Culture Collection (ATCC, […], MD, USA), and were cultured in Minimum Essential Medium (MEM) supplemented with 10% fetal bovine serum (FBS) (GIBCO, Grand Island, NY, USA) and antibiotics (100 U/mL penicillin and […] streptomycin) at 37 °C in a 5% CO2 incubator. EV71 strain SHZH98 isolated from the throat swab sample of an HFMD case occurring in 1998 in China was kindly provided by Dr. Qi Jin (Institute of Pathogen Biology, Chinese Academy of Medical Science and Peking Union Medical School, Beijing, China), and JS-52 strain was a kind gift from Dr. Xiangzhong Ye (Beijing Wantai Biological Pharmacy Enterprise Co., Ltd., Beijing, China). The EV71 BrCr and H strains were purchased from the ATCC. All of EV71 strains were passaged in Vero cells.
Cytotoxicity of all target compounds in Vero cells was analyzed by CCK (TransGen Biotech, Beijing, China) assay. In brief, cells in exponential phase (3 × 10^4 cells/well) were seeded into 96-well culture plates and incubated overnight. Then, the medium was removed and different concentrations of all target compounds were applied in duple. After 48 h incubation, the cytotoxicity of all target compounds was determined by CCK assay. The signals were read at 450 nm on Enspire (Perkin Elmer, Waltham, MA, USA). The TC50 was defined as the concentration that inhibits 50% cellular growth in comparison with the controls. It is calculated by the Reed and Muench method.

For series [2], the system named is EV71 SHZH98 strain (genotype C4). Briefly: CPE inhibition assay for anti-EV71, SHZH98 strain. It is filed as cell-based, enterovirus 71 (EV71). The note with it: Enterovirus A, EV71; Vero cells; CPE; calculated on the organic part; n = 3; read-out: SHZH98 Strain IC50. As for the experimental part:
(§2) Thus, all newly synthesized BBR analogues were screened for their anti-EV71 potencies in African green monkey kidney (Vero) cells taking BBR as the positive control. EV71 strains used in the present study include different genotype strains, such as H strain (VR-1432, genotype C2), BrCr strain (VR-1775, genotype A), and JS-52 and SHZH98 (genotype C4). The potency against EV71 strains above mentioned of each tested compound was evaluated by the combination of its IC50 and selectivity index (SI) value as the important therapeutic indication.
as §1
(§3) The anti-EV71 activities of all tested compounds were detected by the virus-induced CPE assay. Briefly, cells (3 × 10^4 cells/well) were plated into 96-well culture plates and incubated for 16 h. Then, remove the medium and infected cells with EV71 of 100 × TCID50 (50% tissue culture infective doses) in serum-free medium for 1 h at 37 °C. After that, the unbound viruses were removed and various concentrations of tested compounds were supplemented for incubation of another 72 h. […] TC50 defined as the concentration that leads to the 50% of CPE which determined by the same method in 72 h. In addition, the cells were stained the cells were colored with 0.5% crystal violet in 20% ethanol for 15 min at room temperature and the cells were imaged after rinsed with PBS.

The subject of series [3] is EV71 JS-52 strain (genotype C4). The experiment in a line: CPE inhibition assay for anti-EV71, JS-52 strain. The format is cell-based, enterovirus 71 (EV71). The note with it: Enterovirus A, EV71; Vero cells; CPE; calculated on the organic part; n = 3; read-out: JS-52 Strain IC50. The procedure: as §2, §1, §3
For series [4], the system named is MEK/ERK signaling pathway. Further details: method as in PMID 28081706. The settings on record: cited from earlier work.
Series [5] concerns EV71 BrCr strain (VR-1775, genotype A). The experiment in a line: CPE inhibition assay for anti-EV71, BrCr strain. It is filed as cell-based, enterovirus 71 (EV71). The note with it: Enterovirus A, EV71; Vero cells; CPE; calculated on the organic part; n = 3; read-out: BrCr Strain IC50. The procedure:
as §2, §1, §3

For series [6], the system named is four different genotype enterovirus 71 (EV71) strains. The experiment in a line: CPE assay, summary over the four EV71 strains. It is filed as cell-based. The settings on record: Enterovirus A, EV71, read-out: IC50 (Figure 1). As for the experimental part: as §2, §3
Series [7] has as its system EV71 H strain (VR-1432, genotype C2). The experiment in a line: CPE inhibition assay for anti-EV71, H strain. It is filed as cell-based, enterovirus 71 (EV71). The note with it: Enterovirus A, EV71; Vero cells; CPE; calculated on the organic part; n = 3; read-out: H Strain IC50. As for the experimental part: as §2, §1, §3

Counter-ions that a name gives are not always drawn.

In turn, `COc1cc2c(cc1OC)-c1cc3ccc(OC)c(OCC(=O)c4ccc(C(F)(F)F)cc4)c3c[n+]1CC2` (as salt: chloride) [4f, 2,3,10-Trimethoxy-9-p-trifloromethylphenylformylmethylenoxy protoberberine chloride] came in with a melting point of 240 to 242 °C.
In the case of `COc1cc2c(cc1OC)-c1cc3ccc(OC)c(OC(=O)OCc4ccccc4)c3c[n+]1CC2` (as salt: chloride) [4g, 2,3,10-Trimethoxy-9-benzyloxyformyloxy protoberberine chloride], the melting point is 98 to 100 °C.
On to `CCOC(=O)COc1cc2c(cc1OC)-c1cc3ccc(OC)c(OC)c3c[n+]1CC2` (as salt: chloride) [5a, 2,9,10-Trimethoxy-3-ethyloxyformylmethylenoxy protoberberine chloride], for which the melting point lay within 234 to 236 °C.
Same read-out and setting: with `COc1cc2c(cc1OCC(=O)C(C)(C)C)CC[n+]1cc3c(OC)c(OC)ccc3cc1-2` (as salt: chloride) [5b, 2,9,10-Trimethoxy-3-pivalylmethylenoxy protoberberine chloride] the figure was 223 to 225 °C.
`COc1cc2c(cc1OCC(=O)OCc1ccccc1)CC[n+]1cc3c(OC)c(OC)ccc3cc1-2` (as salt: chloride) [5c, 2,9,10-Trimethoxy-3-benzyloxyformylmethylenoxy protoberberine chloride] had a melting point of 217 to 219 °C.
`COc1cc2c(cc1OCC(=O)c1ccc(C)cc1)CC[n+]1cc3c(OC)c(OC)ccc3cc1-2` (as salt: chloride) [5d, 2,9,10-Trimethoxy-3-p-methylphenylformylmethylenoxy protoberberine chloride] displayed a melting point of 218 to 220 °C.
Regarding `COc1cccc(C(=O)COc2cc3c(cc2OC)-c2cc4ccc(OC)c(OC)c4c[n+]2CC3)c1` (as salt: chloride) [5e, 2,9,10-Trimethoxy-3-m-methoxyphenylformylmethylenoxy protoberberine chloride], the melting point fell in the range of 218 to 220 °C.
Take `COc1cc2c(cc1OCC(=O)c1ccc(C(F)(F)F)cc1)CC[n+]1cc3c(OC)c(OC)ccc3cc1-2` (as salt: chloride) [5f, 2,9,10-Trimethoxy-3-p-trifloromethylphenylformylmethylenoxy protober berine chloride]: the melting point lay in the range of 213 to 215 °C.
Consider `COc1cc2c(cc1OC(=O)OCc1ccccc1)CC[n+]1cc3c(OC)c(OC)ccc3cc1-2` (as salt: chloride) [5g, 2,9,10-Trimethoxy-3-benzyloxyformyloxy protoberberine chloride], for which the melting point fell in the range of 140 to 142 °C.
On to `COc1ccc2cc3[n+](cc2c1OC)CCc1cc2c(cc1-3)OCO2` [BBR, berberine], for which the “TC50 (median toxic concentration)” value in series [1] was 147 µM. Further, the IC50 was 28.2 µM in series [2]; 14 µM in series [3]; 9.45 µM in series [5]; 8.55 to 25.5 µM in series [6]; 21.2 µM in series [7]. The “phosphorylation of MEK/ERK induced by EV71 infection” value in series [4] is reported as “could inhibit the phosphorylation of MEK/ERK”.
